≈ marks a conversion by molar mass, not a printed value. Where two headings read alike, the source gives them in different places. Bridge positions count the residues as written; N and C are the ends. Square brackets hold non-standard residues; d marks the D form. Peptide text beside a SMILES is read from it. * marks the point of attachment. Decanoyl = CCCCCCCCCC(=O)*; Nonanoyl = CCCCCCCCC(=O)*; Dab = NCC[C@H](N)C(=O)O
Tests used:
P. aeruginosa ATTC 9027 = format: cell-based, Pseudomonas aeruginosa; conditions: for MIC P. aeruginosa: ATTC 9027; for MIC P. a.: Supplementary Table S1, P. aeruginosa
Description: (§1) MICs were measured after 18–20 h of incubation in sterile 96-well plates (Corning Costar 3598 microtiter plates) in Mueller Hinton Broth (MHB) culture medium, (Difco, USA), according to well known in vitro protocols. Bacterial strains in Table 1 were: P. aeruginosa ATTC 9027, E. coli ATTC 8739, S. aureus ATTC 6538, and E. faecalis ATTC 29212. MICs shown in table 4 were performed by Mary Conrad at Cubist Pharmaceuticals (Lexington, MA) in non-binding surface plates.

E. coli ATTC 8739 = format: cell-based, Escherichia coli; conditions: for MIC E. coli: ATTC 8739; for MIC E. c.: Supplementary Table S1, E. coli
Description: as §1

S. aureus ATTC 6538 = assay: microbe, parasite or virus in culture; format: cell-based, Staphylococcus aureus; conditions: for MIC S. aureus: ATTC 6538; for MIC S. a.: Supplementary Table S1, S. aureus
Description: as §1

Compound	MIC P. aeruginosa (P. aeruginosa ATTC 9027) [mg/L]	MIC E. coli (E. coli ATTC 8739) [mg/L]	MIC S. a. (S. aureus ATTC 6538) [mg/L]	MIC P. a. (P. aeruginosa ATTC 9027) [mg/L]	MIC E. c. (E. coli ATTC 8739) [mg/L]	also measured
CCCCCCCCC(=O)N[C@@H](CCN)C(=O)N[C@H](C(=O)N[C@@H](CCN)C(=O)N[C@H]1CSSC[C@@H](C(N)=O)NC(=O)[C@H](CCN)NC(=O)[C@H](CCN)NC(=O)[C@H](CC(C)C)NC(=O)[C@@H](Cc2ccccc2)NC(=O)[C@H](CCN)NC1=O)[C@@H](C)O [Analog 1, nonanoyl-Dab-Thr-Dab-Cys-Dab-Phe-Leu-Dab-Dab-Cys] (Nonanoyl-[Dab]T[Dab]C[Dab][dF]L[Dab][Dab]C-NH2; disulfide 4-10)	8 (≈ 6.54 µM)	4 (≈ 3.27 µM)				
CCCCCCCCC(=O)N[C@@H](CCCNC(=N)N)C(=O)N[C@H](C(=O)N[C@@H](CCN)C(=O)N[C@H]1CSSC[C@@H](C(N)=O)NC(=O)[C@H](CCN)NC(=O)[C@H](CCN)NC(=O)[C@H](CC(C)C)NC(=O)[C@@H](Cc2ccccc2)NC(=O)[C@H](CCN)NC1=O)[C@@H](C)O [Analog 2, nonanoyl-Arg-Thr-Dab-Cys-Dab-Phe-Leu-Dab-Dab-Cys] (Nonanoyl-RT[Dab]C[Dab][dF]L[Dab][Dab]C-NH2; disulfide 4-10)	8 (≈ 6.25 µM)	8 (≈ 6.25 µM)				MIC S. aureus (S. aureus ATTC 6538): >32 mg/L
CCCCCCCCC(=O)N[C@@H](CCN)C(=O)N[C@H](C(=O)N[C@@H](CCCNC(=N)N)C(=O)N[C@H]1CSSC[C@@H](C(N)=O)NC(=O)[C@H](CCN)NC(=O)[C@H](CCN)NC(=O)[C@H](CC(C)C)NC(=O)[C@@H](Cc2ccccc2)NC(=O)[C@H](CCN)NC1=O)[C@@H](C)O [Analog 3, nonanoyl-Dab-Thr-Arg-Cys-Dab-Phe-Leu-Dab-Dab-Cys] (Nonanoyl-[Dab]TRC[Dab][dF]L[Dab][Dab]C-NH2; disulfide 4-10)	4 (≈ 3.13 µM)	8 (≈ 6.25 µM)				MIC S. aureus (S. aureus ATTC 6538): >32 mg/L
CCCCCCCCC(=O)N[C@@H](CCN)C(=O)N[C@H](C(=O)N[C@@H](CCN)C(=O)N[C@H]1CSSC[C@@H](C(N)=O)NC(=O)[C@H](CCN)NC(=O)[C@H](CCCNC(=N)N)NC(=O)[C@H](CC(C)C)NC(=O)[C@@H](Cc2ccccc2)NC(=O)[C@H](CCN)NC1=O)[C@@H](C)O [Analog 4, nonanoyl-Dab-Thr-Dab-Cys-Dab-Phe-Leu-Arg-Dab-Cys] (Nonanoyl-[Dab]T[Dab]C[Dab][dF]LR[Dab]C-NH2; disulfide 4-10)	2 to 4	8 (≈ 6.25 µM)				MIC S. aureus (S. aureus ATTC 6538): >32 mg/L
CCCCCCCCC(=O)N[C@@H](CCN)C(=O)N[C@H](C(=O)N[C@@H](CCCNC(=N)N)C(=O)N[C@H]1CSSC[C@@H](C(N)=O)NC(=O)[C@H](CCN)NC(=O)[C@H](CCCNC(=N)N)NC(=O)[C@H](CC(C)C)NC(=O)[C@@H](Cc2ccccc2)NC(=O)[C@H](CCN)NC1=O)[C@@H](C)O [Analog 6, nonanoyl-Dab-Thr-Arg-Cys-Dab-Phe-Leu-Arg-Dab-Cys] (Nonanoyl-[Dab]TRC[Dab][dF]LR[Dab]C-NH2; disulfide 4-10)	8 (≈ 5.99 µM)	8 (≈ 5.99 µM)				
CCCCCCCCC(=O)N[C@@H](CCCNC(=N)N)C(=O)N[C@H](C(=O)N[C@@H](CCCNC(=N)N)C(=O)N[C@H]1CSSC[C@@H](C(N)=O)NC(=O)[C@H](CCCNC(=N)N)NC(=O)[C@H](CCCNC(=N)N)NC(=O)[C@H](CC(C)C)NC(=O)[C@@H](Cc2ccccc2)NC(=O)[C@H](CCN)NC1=O)[C@@H](C)O [Analog 10, nonanoyl-Arg-Thr-Arg-Cys-Dab-Phe-Leu-Arg-Arg-Cys] (Nonanoyl-RTRC[Dab][dF]LRRC-NH2; disulfide 4-10)	16 (≈ 11.1 µM)	32 (≈ 22.1 µM)				MIC S. aureus (S. aureus ATTC 6538): 32 mg/L (≈ 22.1 µM)
CCCCCCCCC(=O)N[C@@H](CCCNC(=N)N)C(=O)N[C@H](C(=O)N[C@@H](CCN)C(=O)N[C@H]1CSSC[C@H](C(N)=O)NC(=O)[C@H](CCN)NC(=O)[C@H](CCCNC(=N)N)NC(=O)[C@H](CC(C)C)NC(=O)[C@@H](Cc2ccccc2)NC(=O)[C@H](CCN)NC1=O)[C@@H](C)O [Analog 13, nonanoyl-Arg-Thr-Dab-Cys-Dab-Phe-Leu-Arg-Dab-Cys] (Nonanoyl-RT[Dab]C[Dab][dF]LR[Dab][dC]-NH2; disulfide 4-10)	8 (≈ 5.99 µM)	4 (≈ 2.99 µM)				MIC S. aureus (S. aureus ATTC 6538): 16 mg/L (≈ 12 µM)
CCCCCCCCCC(=O)N[C@@H](CCCNC(=N)N)C(=O)N[C@H](C(=O)N[C@@H](CCN)C(=O)N[C@H]1CSSC[C@@H](C(N)=O)NC(=O)[C@H](CCN)NC(=O)[C@H](CCCNC(=N)N)NC(=O)[C@H](CC(C)C)NC(=O)[C@@H](Cc2ccccc2)NC(=O)[C@H](CCN)NC1=O)[C@@H](C)O [Analog 36, decanoyl-Arg-Thr-Dab-Cys-Dab-Phe-Leu-Arg-Dab-Cys] (Decanoyl-RT[Dab]C[Dab][dF]LR[Dab]C-NH2; disulfide 4-10)	8 (≈ 5.93 µM)	8 (≈ 5.93 µM)				MIC S. aureus (S. aureus ATTC 6538): 16 mg/L (≈ 11.9 µM)
CCCCCCCCCC(=O)N[C@@H](CCN)C(=O)N[C@H](C(=O)N[C@@H](CCN)C(=O)N[C@H]1CSSC[C@H](C(N)=O)NC(=O)[C@H](CCN)NC(=O)[C@H](CCN)NC(=O)[C@H](CC(C)C)NC(=O)[C@@H](Cc2ccccc2)NC(=O)[C@H](CCN)NC1=O)[C@@H](C)O [Analog 37, decanoyl -Dab-Thr-Dab-Cys-Dab-Phe-Leu-Dab-Dab-Cys] (Decanoyl-[Dab]T[Dab]C[Dab][dF]L[Dab][Dab][dC]-NH2; disulfide 4-10)	4 (≈ 3.23 µM)	2 (≈ 1.62 µM)				MIC S. aureus (S. aureus ATTC 6538): 8 mg/L (≈ 6.46 µM)
C9-Arg(NO2)-Thr-Dab-Cys-Dab-Phe-Leu-Arg(NO2)-Dab-Cys [Analog 16]			> 32			
C9-Arg-Thr-Arg-Cys-Arg-Phe-Leu-Arg-Dab-Cys (RTRCRFLR; not fully specified; C9 acyl; Dab-Cys C-terminal; printed: Arg-Thr-Arg-Cys-Arg-Phe-Leu-Arg-) [Analog 11]			16	128	16	
C9-Arg-Thr-Arg-Cys-Dab-Phe-Leu-Dab-Dab-Cys [Analog 7]			32	32	32	
C9-Arg-Thr-Arg-Cys-Dab-Phe-Met-Arg-Dab-Cys [Analog 22]			32	16	16	
C9-Arg-Thr-Dab-Cys-Arg-Phe-Leu-Arg-Dab-Cys [Analog 9]			16	128	16	
C9-Arg-Thr-Dab-Cys-Dab-Gly-Gly-Arg-Dab-Cys [Analog 24]			> 128	> 128	> 128	
C9-Arg-Thr-Dab-Cys-Dab-Gly-Leu-Arg-Dab-Cys [Analog 25]			> 128	> 128	> 128	
C9-Arg-Thr-Dab-Cys-Dab-Leu-Leu-Arg-Dab-Cys [Analog 29]			32	16	32	
C9-Arg-Thr-Dab-Cys-Dab-Leu-Thr-Arg-Dab-Cys [Analog 30]			> 128	32	32	
C9-Arg-Thr-Dab-Cys-Dab-Phe-Gly-Arg-Dab-Cys [Analog 26]			128	> 128	64	
C9-Arg-Thr-Dab-Cys-Dab-Phe-Leu-Arg-Dab-Cys [Analog 17]						MIC P. a. (P. aeruginosa ATTC 9027; listed as 17): 16 mg/L
C9-Arg-Thr-Dab-Cys-Dab-Phe-Leu-Arg-Dab-Cys [Analog 23]			32		64	MIC P. a. (P. aeruginosa ATTC 9027; listed as 23): 128 mg/L
C9-Arg-Thr-Dab-Cys-Dab-Phe-Met-Arg-Dab-Cys [Analog 21]			> 32	8		
C9-Arg-Thr-Dab-Cys-Dab-Phe-Thr-Arg-Dab-Cys [Analog 27]			64	8	16	
C9-Arg-Thr-Dab-Cys-Dab-Trp-Leu-Arg-Dab-Cys [Analog 28]			8	8	4	
C9-Arg-Thr-Dab-Ser-Dab-Phe-Leu-Arg-Dab-Ser [Analog 18]			64	64	32	
C9-Arg-Thr-His-Cys-Dab-Phe-Leu-Arg-His-Cys [Analog 31]			128	32	32	
C9-Arg-Thr-Lys-Cys-Dab-Phe-Leu-Arg-Lys-Cys [Analog 32]			32	16	8	
C9-Arg-Thr-Orn-Cys-Dab-Phe-Leu-Arg-Orn-Cys [Analog 34]			32	16	8	
C9-Dab-Thr-Dab-Cys-Dab-Phe-Met(O)-Dab-Dab-Cys [Analog 20]			> 32		> 32	
